In PubChem BioAssay (NCI):
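Method: 48-hour compound exposure of cells in 96-well plates, five concentrations, linear interpolation of endpoints. TGI: concentration producing complete growth inhibition.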

Tests used:
Test in all cases: NCI tumour cell line growth inhibition, 48 h
[1] = test system: SN12C renal
[2] = test system: RXF 393 renal
[3] = test system: HOP-62 NSCLC
[4] = test system: SK-MEL-28 melanoma
[5] = test system: HL-60(TB) leukemia
[6] = test system: HCT-116 colon
[7] = test system: NCI/ADR-RES ovarian
[8] = test system: MOLT-4 leukemia
[9] = test system: SK-MEL-2 melanoma
[10] = test system: UACC-62 melanoma
[11] = test system: UO-31 renal
[12] = test system: HS 578T breast
[13] = test system: MDA-MB-435
[14] = test system: RPMI-8226 leukemia
[15] = test system: SF-268 CNS
[16] = test system: CAKI-1 renal
[17] = test system: SK-OV-3 ovarian
[18] = test system: NCI-H23 lung
[19] = test system: M14 melanoma
[20] = test system: SK-MEL-5 melanoma
[21] = test system: MCF7 breast
[22] = test system: A498 renal
[23] = test system: DU-145 prostate
[24] = test system: SNB-75 CNS
[25] = test system: EKVX NSCLC
[26] = test system: HCC-2998 colon
[27] = test system: OVCAR-8 ovarian
[28] = test system: U251 CNS
[29] = test system: LOX IMVI melanoma
[30] = test system: CCRF-CEM leukemia
[31] = test system: COLO 205 colon
[32] = test system: OVCAR-5 ovarian
[33] = test system: T-47D breast
[34] = test system: HT29 colon
[35] = test system: MALME-3M melanoma
[36] = test system: PC-3 prostate
[37] = test system: KM12 colon
[38] = test system: MDA-N
[39] = test system: BT-549 breast
[40] = test system: K-562 leukemia
[41] = test system: 786-0 renal
[42] = test system: MDA-MB-231 breast
[43] = test system: NCI-H522 lung
[44] = test system: HCT-15 colon
[45] = test system: ACHN renal
[46] = test system: SW-620 colon
[47] = test system: OVCAR-3 ovarian
[48] = test system: OVCAR-4 ovarian
[49] = test system: SF-295 CNS
[50] = test system: SR leukemia
[51] = test system: SNB-19 CNS
[52] = test system: NCI-H226 lung
[53] = test system: NCI-H460 lung
[54] = test system: A549 NSCLC
[55] = test system: IGROV1 ovarian
[56] = test system: HOP-92 NSCLC
[57] = test system: SF-539 CNS
[58] = test system: TK-10 renal
[59] = test system: UACC-257 melanoma

Measured: TGI

CCOC(=O)c1ccc(C(=O)/C(C#N)=C2\CCCN2)n1C
> 100 µM: [1] | [2] | [3] | [4] | [5] | [6] | [7] | [8] | [9] | [10] | [11] | [12] | [13] | [14] | [15] | [16] | [17] | [18] | [19] | [20] | [21] | [22] | [23] | [24] | [25] | [26] | [27] | [28] | [29] | [30] | [31] | [32] | [33] | [34] | [35] | [36] | [37] | [38] | [39] | [40] | [41] | [42] | [43] | [44] | [45] | [46] | [47] | [48] | [49] | [50] | [51] | [52] | [53] | [54] | [55]

CCOP(=O)(OCC)C(C)(CC)NC1=NC(C(F)(F)F)(C(F)(F)F)NC(=O)N1 (configuration not stated)
> 100 µM: [1] | [2] | [3] | [4] | [5] | [6] | [7] | [8] | [9] | [10] | [11] | [12] | [13] | [14] | [15] | [16] | [17] | [18] | [19] | [20] | [21] | [23] | [24] | [25] | [26] | [56] | [27] | [28] | [29] | [30] | [31] | [32] | [33] | [57] | [34] | [35] | [58] | [36] | [37] | [38] | [39] | [40] | [41] | [42] | [44] | [45] | [46] | [47] | [48] | [49] | [50] | [51] | [52] | [53] | [54] | [55] | [59]
